Laboratory results from ChEMBL document CHEMBL5352496, “Design, synthesis and biological activity of hybrid antifungals derived from fluconazole and mebendazole” (Eur J Med Chem, 2023).
In brackets after ≈: the same amount, converted by molar mass.

Experiments:
Candida albicans [1] = experiment: Antifungal activity against Candida albicans CMRC 192 incubated for 24 hrs by broth microdilution method; assay type: functional
Nakaseomyces glabratus [2] = experiment: Antifungal activity against Candida glabrata CMRC 89 incubated for 24 hrs by broth microdilution method; assay type: functional
Candida parapsilosis = experiment: Antifungal activity against Candida parapsilosis ATCC 22019 incubated for 24 hrs by broth microdilution method; assay type: functional; settings: Lodderomyces parapsilosis
Cryptococcus neoformans = experiment: Antifungal activity against Cryptococcus neoformans IFRC 340 incubated for 24 hrs by broth microdilution method; assay type: functional
Candida albicans [3] = experiment: Antifungal activity against Candida albicans FDC 151 incubated for 24 hrs by broth microdilution method; assay type: functional
Candida tropicalis = experiment: Antifungal activity against Candida tropicalis FDC 138 incubated for 24 hrs by broth microdilution method; assay type: functional
Nakaseomyces glabratus [4] = experiment: Antifungal activity against Candida glabrata FDC 192 incubated for 24 hrs by broth microdilution method; assay type: functional
Candida albicans [5] = experiment: Antifungal activity against Candida albicans CMRC 19 incubated for 24 hrs by broth microdilution method; assay type: functional
HepG2 = experiment: Cytotoxicity against human HepG2 cells assessed as cell viability at 25 ug/ml incubated for 48 hrs by MTT assay; assay type: toxicity, cell-based; settings: hepg2, 48 h, dose 25 µg/ml
BEAS-2B = experiment: Cytotoxicity against human BEAS-2B cells assessed as cell viability at 25 ug/ml incubated for 48 hrs by MTT assay; assay type: toxicity, cell-based; settings: dose 25 µg/ml

SMILES	MIC (Candida albicans [1]) [µg/mL]	MIC (Nakaseomyces glabratus [2]) [µg/mL]	MIC (Candida parapsilosis) [µg/mL]	MIC (Cryptococcus neoformans) [µg/mL]	MIC (Candida albicans [3]) [µg/mL]	MIC (Candida tropicalis) [µg/mL]	MIC (Nakaseomyces glabratus [4]) [µg/mL]	MIC (Candida albicans [5]) [µg/mL]	Activity (HepG2)	Activity (BEAS-2B)
OC(CSc1nc2ccccc2s1)(Cn1cncn1)c1ccc(Cl)cc1Cl (stereo not drawn)	8 (≈ 18.3 µM)	16 (≈ 36.6 µM)	16 (≈ 36.6 µM)	16 (≈ 36.6 µM)	8 (≈ 18.3 µM)	8 (≈ 18.3 µM)	16 (≈ 36.6 µM)	16 (≈ 36.6 µM)		
OC(CSc1nc2ccccc2[nH]1)(Cn1cncn1)c1ccc(F)cc1 (stereo not drawn)	0.25 (≈ 0.677 µM)	1 (≈ 2.71 µM)	< 0.063	0.125 (≈ 0.338 µM)	0.063 (≈ 0.171 µM)	< 0.063	0.125 (≈ 0.338 µM)	0.125 (≈ 0.338 µM)	Toxic	Toxic
OC(CSc1nc2ccccc2s1)(Cn1cncn1)c1ccc(Cl)cc1 (stereo not drawn)	4 (≈ 9.93 µM)	2 (≈ 4.96 µM)	8 (≈ 19.9 µM)	4 (≈ 9.93 µM)	8 (≈ 19.9 µM)	4 (≈ 9.93 µM)	8 (≈ 19.9 µM)	4 (≈ 9.93 µM)		
O=C(c1ccccc1)c1ccc2[nH]c(SCC(O)(Cn3cncn3)c3ccc(Cl)cc3Cl)nc2c1 (stereo not drawn)	1 (≈ 1.91 µM)	2 (≈ 3.81 µM)	2 (≈ 3.81 µM)	1 (≈ 1.91 µM)	0.063 (≈ 0.12 µM)	0.125 (≈ 0.238 µM)	1 (≈ 1.91 µM)	0.5 (≈ 0.953 µM)		
O=C(c1ccccc1)c1ccc2[nH]c(SCC(O)(Cn3cncn3)c3ccc(Cl)cc3)nc2c1 (stereo not drawn)	0.5 (≈ 1.02 µM)	1 (≈ 2.04 µM)	< 0.063	0.125 (≈ 0.255 µM)	< 0.063	< 0.063	0.125 (≈ 0.255 µM)	0.5 (≈ 1.02 µM)	Toxic	Toxic
OC(CSc1nc2ccccc2s1)(Cn1cncn1)c1ccc(F)cc1 (stereo not drawn)	16 (≈ 41.4 µM)	8 (≈ 20.7 µM)	16 (≈ 41.4 µM)	32 (≈ 82.8 µM)	> 64	16 (≈ 41.4 µM)	> 64	8 (≈ 20.7 µM)		
OC(CSc1nc2ccccc2[nH]1)(Cn1cncn1)c1ccccc1 (stereo not drawn)	> 64	16 (≈ 45.5 µM)	32 (≈ 91.1 µM)	> 64	> 64	32 (≈ 91.1 µM)	> 64	> 64		
O=[N+]([O-])c1ccc2[nH]c(SCC(O)(Cn3cncn3)c3ccc(F)cc3F)nc2c1 (stereo not drawn)	> 64	> 64	> 64	32 (≈ 74 µM)	32 (≈ 74 µM)	32 (≈ 74 µM)	> 64	> 64		
OC(CSc1nc2ccccc2[nH]1)(Cn1cncn1)c1ccc(Cl)cc1Cl (stereo not drawn)	8 (≈ 19 µM)	16 (≈ 38.1 µM)	8 (≈ 19 µM)	8 (≈ 19 µM)	8 (≈ 19 µM)	8 (≈ 19 µM)	16 (≈ 38.1 µM)	8 (≈ 19 µM)		
OC(Cn1cncn1)(Cn1cncn1)c1ccc(F)cc1F [FLUCONAZOLE]	0.25 (≈ 0.816 µM)	2 (≈ 6.53 µM)	0.5 (≈ 1.63 µM)	0.5 (≈ 1.63 µM)	0.5 (≈ 1.63 µM)	0.25 (≈ 0.816 µM)	1 (≈ 3.27 µM)	0.25 (≈ 0.816 µM)		
OC(CSc1nc2ccccc2s1)(Cn1cncn1)c1ccccc1 (stereo not drawn)	16 (≈ 43.4 µM)	32 (≈ 86.8 µM)	8 (≈ 21.7 µM)	16 (≈ 43.4 µM)	32 (≈ 86.8 µM)	16 (≈ 43.4 µM)	32 (≈ 86.8 µM)	16 (≈ 43.4 µM)		
O=C(c1ccccc1)c1ccc2[nH]c(SCC(O)(Cn3cncn3)c3ccc(F)cc3F)nc2c1 (stereo not drawn)	1 (≈ 2.03 µM)	8 (≈ 16.3 µM)	2 (≈ 4.07 µM)	1 (≈ 2.03 µM)	2 (≈ 4.07 µM)	1 (≈ 2.03 µM)	1 (≈ 2.03 µM)	2 (≈ 4.07 µM)		
OC(CSc1nc2ccccc2s1)(Cn1cncn1)c1ccc(F)cc1F (stereo not drawn)	32 (≈ 79.1 µM)	32 (≈ 79.1 µM)	> 64	> 64	> 64	> 64	> 64	16 (≈ 39.6 µM)		
O=C(c1ccccc1)c1ccc2[nH]c(SCC(O)(Cn3cncn3)c3ccc(F)cc3)nc2c1 (stereo not drawn)	8 (≈ 16.9 µM)	16 (≈ 33.8 µM)	> 64	32 (≈ 67.6 µM)	16 (≈ 33.8 µM)	16 (≈ 33.8 µM)	> 64	8 (≈ 16.9 µM)		
OC(c1ccccc1)c1ccc2[nH]c(SCC(O)(Cn3cncn3)c3ccccc3)nc2c1 (stereo not drawn)	8 (≈ 17.5 µM)	16 (≈ 35 µM)	4 (≈ 8.74 µM)	8 (≈ 17.5 µM)	2 (≈ 4.37 µM)	2 (≈ 4.37 µM)	8 (≈ 17.5 µM)	8 (≈ 17.5 µM)		
O=C(c1ccccc1)c1ccc2[nH]c(SCC(O)(Cn3cncn3)c3ccccc3)nc2c1 (stereo not drawn)	4 (≈ 8.78 µM)	8 (≈ 17.6 µM)	2 (≈ 4.39 µM)	2 (≈ 4.39 µM)	8 (≈ 17.6 µM)	8 (≈ 17.6 µM)	4 (≈ 8.78 µM)	4 (≈ 8.78 µM)		
OC(CSc1nc2ccccc2[nH]1)(Cn1cncn1)c1ccc(Cl)cc1 (stereo not drawn)	8 (≈ 20.7 µM)	16 (≈ 41.5 µM)	16 (≈ 41.5 µM)	16 (≈ 41.5 µM)	4 (≈ 10.4 µM)	8 (≈ 20.7 µM)	16 (≈ 41.5 µM)	8 (≈ 20.7 µM)		
OC(CSc1nc2ccccc2[nH]1)(Cn1cncn1)c1ccc(F)cc1F (stereo not drawn)	> 64	> 64	> 64	32 (≈ 82.6 µM)	> 64	32 (≈ 82.6 µM)	> 64	> 64		
